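Dose response: 5 concentrations. Exposure: 48 h. Format: 96-well plates. Endpoint: linear interpolation; highest concentration if not reached. Definition used: TGI = concentration required for complete inhibition of growth.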
Assays:
Test in all cases: NCI-60 cell line screen, 48 h
[1] = test system: OVCAR-5 ovarian
[2] = test system: HOP-62 NSCLC
[3] = test system: CCRF-CEM leukemia
[4] = test system: HCT-15 colon
[5] = test system: A498 renal
[6] = test system: K-562 leukemia
[7] = test system: UACC-257 melanoma
[8] = test system: LOX IMVI melanoma
[9] = test system: MCF7 breast
[10] = test system: UACC-62 melanoma
[11] = test system: OVCAR-4 ovarian
[12] = test system: NCI-H522 lung
[13] = test system: U251 CNS
[14] = test system: IGROV1 ovarian
[15] = test system: A549 NSCLC
[16] = test system: CAKI-1 renal
[17] = test system: SK-MEL-2 melanoma
[18] = test system: RPMI-8226 leukemia
[19] = test system: NCI-H460 lung
[20] = test system: SW-620 colon
[21] = test system: NCI-H23 lung
[22] = test system: SN12C renal
[23] = test system: HT29 colon
[24] = test system: RXF 393 renal
[25] = test system: NCI/ADR-RES ovarian
[26] = test system: HS 578T breast
[27] = test system: TK-10 renal
[28] = test system: SNB-19 CNS
[29] = test system: M14 melanoma
[30] = test system: SF-295 CNS
[31] = test system: OVCAR-8 ovarian
[32] = test system: MDA-MB-231 breast
[33] = test system: MDA-MB-435
[34] = test system: BT-549 breast
[35] = test system: SF-539 CNS
[36] = test system: SK-OV-3 ovarian
[37] = test system: SK-MEL-5 melanoma
[38] = test system: EKVX NSCLC
[39] = test system: MOLT-4 leukemia
[40] = test system: KM12 colon
[41] = test system: HCT-116 colon
[42] = test system: OVCAR-3 ovarian
[43] = test system: HOP-92 NSCLC
[44] = test system: MDA-N
[45] = test system: DU-145 prostate
[46] = test system: COLO 205 colon
[47] = test system: PC-3 prostate
[48] = test system: NCI-H226 lung
[49] = test system: UO-31 renal
[50] = test system: SNB-75 CNS
[51] = test system: T-47D breast
[52] = test system: ACHN renal
[53] = test system: SF-268 CNS
[54] = test system: SR leukemia
[55] = test system: 786-0 renal
[56] = test system: HCC-2998 colon
[57] = test system: HL-60(TB) leukemia
[58] = test system: MALME-3M melanoma
[59] = test system: SK-MEL-28 melanoma

**Q.** What does the source list for `COc1cc2nc3c(=C(C#N)C#N)c4ccccc4n3c(=O)c2cc1OC`?
**A.** TGI [1]: > 100 µM; TGI [2]: > 100 µM; TGI [3]: > 100 µM; TGI [4]: > 100 µM; TGI [5]: > 100 µM; TGI [6]: > 100 µM; TGI [7]: > 100 µM; TGI [8]: > 100 µM; TGI [9]: > 100 µM; TGI [10]: > 100 µM; TGI [11]: > 100 µM; TGI [12]: > 100 µM; TGI [13]: > 100 µM; TGI [14]: > 100 µM; TGI [15]: > 100 µM; TGI [16]: > 100 µM; TGI [17]: > 100 µM; TGI [18]: > 100 µM; TGI [19]: > 100 µM; TGI [20]: > 100 µM; TGI [21]: > 100 µM; TGI [22]: > 100 µM; TGI [23]: > 100 µM; TGI [24]: > 100 µM; TGI [25]: > 100 µM; TGI [26]: > 100 µM; TGI [27]: > 100 µM; TGI [28]: > 100 µM; TGI [29]: > 100 µM; TGI [30]: > 100 µM; TGI [31]: > 100 µM; TGI [32]: > 100 µM; TGI [33]: > 100 µM; TGI [34]: > 100 µM; TGI [35]: > 100 µM; TGI [36]: > 100 µM; TGI [37]: > 100 µM; TGI [38]: > 100 µM; TGI [39]: > 100 µM; TGI [40]: > 100 µM; TGI [41]: > 100 µM; TGI [42]: > 100 µM; TGI [43]: > 100 µM; TGI [44]: > 100 µM; TGI [45]: > 100 µM; TGI [46]: > 100 µM; TGI [47]: > 100 µM; TGI [48]: > 100 µM; TGI [49]: > 100 µM; TGI [50]: > 100 µM; TGI [51]: > 100 µM; TGI [52]: > 100 µM; TGI [53]: > 100 µM; TGI [54]: > 100 µM; TGI [55]: > 100 µM; TGI [56]: > 100 µM

**Q.** What does the source list for `CC1=C(Cc2ccccc2)C(Cc2ccccc2)=C(C)S1=O`?
**A.** TGI [1]: 73.2 µM; TGI [2]: > 100 µM; TGI [3]: 49.9 µM; TGI [4]: > 100 µM; TGI [5]: 63.7 µM; TGI [6]: > 100 µM; TGI [7]: 48.5 µM; TGI [57]: 34.6 µM; TGI [8]: 50.9 µM; TGI [9]: 60 µM; TGI [10]: 34.3 µM; TGI [11]: > 100 µM; TGI [12]: 78.8 µM; TGI [13]: > 100 µM; TGI [14]: > 100 µM; TGI [15]: > 100 µM; TGI [16]: > 100 µM; TGI [17]: 35.1 µM; TGI [18]: 54.4 µM; TGI [19]: 99.1 µM; TGI [20]: > 100 µM; TGI [21]: 95.7 µM; TGI [22]: 84.1 µM; TGI [23]: 39.4 µM; TGI [24]: 55.1 µM; TGI [25]: 51.7 µM; TGI [26]: > 100 µM; TGI [27]: 76.2 µM; TGI [28]: > 100 µM; TGI [29]: 46.3 µM; TGI [30]: > 100 µM; TGI [31]: > 100 µM; TGI [32]: 52.3 µM; TGI [33]: 35.6 µM; TGI [34]: 92.4 µM; TGI [35]: > 100 µM; TGI [36]: > 100 µM; TGI [37]: 30.1 µM; TGI [38]: 46.9 µM; TGI [39]: 41.5 µM; TGI [40]: 36.5 µM; TGI [41]: 74.7 µM; TGI [42]: > 100 µM; TGI [43]: > 100 µM; TGI [44]: 71.2 µM; TGI [45]: > 100 µM; TGI [46]: 43.1 µM; TGI [47]: 54.1 µM; TGI [49]: > 100 µM; TGI [50]: 54.6 µM; TGI [58]: > 100 µM; TGI [59]: > 100 µM; TGI [51]: 59.1 µM; TGI [52]: > 100 µM; TGI [53]: > 100 µM; TGI [54]: 53.2 µM; TGI [55]: 71 µM; TGI [56]: 42.4 µM

**Q.** How did the TGI [1] turn out when `C=C(C)c1nc(C#N)c(N)o1` was run?
**A.** Its TGI is over 100 µM.

**Q.** What about the TGI [2] of the same compound?
**A.** The TGI was over 100 µM.

**Q.** What about the TGI [3] of the same compound?
**A.** Its TGI is over 100 µM.

**Q.** What about the TGI [4] of the same compound?
**A.** Its TGI is over 100 µM.

**Q.** What about the TGI [6] of the same compound?
**A.** The TGI was over 100 µM.

**Q.** What about the TGI [7] of the same compound?
**A.** Its TGI is over 100 µM.

**Q.** What about the TGI [8] of the same compound?
**A.** Its TGI is over 100 µM.

**Q.** What about the TGI [9] of the same compound?
**A.** The TGI was over 100 µM.

**Q.** What about the TGI [11] of the same compound?
**A.** Its TGI is over 100 µM.

**Q.** What about the TGI [13] of the same compound?
**A.** Its TGI is over 100 µM.

**Q.** What about the TGI [14] of the same compound?
**A.** Its TGI is over 100 µM.

**Q.** What about the TGI [15] of the same compound?
**A.** The TGI was over 100 µM.

**Q.** What about the TGI [16] of the same compound?
**A.** Its TGI is over 100 µM.

**Q.** And the TGI [17]?
**A.** Its TGI is over 100 µM.

**Q.** And the TGI [18]?
**A.** The TGI was over 100 µM.

**Q.** What about the TGI [19] of the same compound?
**A.** Its TGI is over 100 µM.

**Q.** And the TGI [20]?
**A.** The TGI was over 100 µM.

**Q.** What about the TGI [21] of the same compound?
**A.** The TGI was over 100 µM.

**Q.** What about the TGI [22] of the same compound?
**A.** The TGI was over 100 µM.

**Q.** And the TGI [23]?
**A.** Its TGI is over 100 µM.

**Q.** And the TGI [24]?
**A.** The TGI was over 100 µM.

**Q.** What about the TGI [25] of the same compound?
**A.** The TGI was over 100 µM.

**Q.** And the TGI [26]?
**A.** Its TGI is over 100 µM.

**Q.** And the TGI [27]?
**A.** The TGI was over 100 µM.

**Q.** What about the TGI [28] of the same compound?
**A.** Its TGI is over 100 µM.

**Q.** And the TGI [29]?
**A.** The TGI was over 100 µM.

**Q.** What about the TGI [30] of the same compound?
**A.** Its TGI is over 100 µM.

**Q.** What about the TGI [31] of the same compound?
**A.** Its TGI is over 100 µM.

**Q.** And the TGI [32]?
**A.** Its TGI is over 100 µM.

**Q.** What about the TGI [33] of the same compound?
**A.** The TGI was over 100 µM.

**Q.** And the TGI [34]?
**A.** The TGI was over 100 µM.

**Q.** And the TGI [35]?
**A.** Its TGI is over 100 µM.

**Q.** What about the TGI [36] of the same compound?
**A.** Its TGI is over 100 µM.

**Q.** And the TGI [37]?
**A.** Its TGI is over 100 µM.

**Q.** And the TGI [38]?
**A.** The TGI was over 100 µM.

**Q.** And the TGI [39]?
**A.** Its TGI is over 100 µM.

**Q.** And the TGI [40]?
**A.** Its TGI is over 100 µM.

**Q.** And the TGI [41]?
**A.** Its TGI is over 100 µM.

**Q.** And the TGI [42]?
**A.** The TGI was over 100 µM.

**Q.** What about the TGI [44] of the same compound?
**A.** The TGI was over 100 µM.

**Q.** What about the TGI [45] of the same compound?
**A.** Its TGI is over 100 µM.

**Q.** What about the TGI [46] of the same compound?
**A.** The TGI was over 100 µM.

**Q.** And the TGI [47]?
**A.** Its TGI is over 100 µM.

**Q.** And the TGI [48]?
**A.** The TGI was over 100 µM.

**Q.** And the TGI [49]?
**A.** The TGI was over 100 µM.

**Q.** What about the TGI [58] of the same compound?
**A.** The TGI was over 100 µM.

**Q.** What about the TGI [59] of the same compound?
**A.** The TGI was over 100 µM.

**Q.** And the TGI [51]?
**A.** The TGI was over 100 µM.

**Q.** And the TGI [52]?
**A.** The TGI was over 100 µM.

**Q.** What about the TGI [53] of the same compound?
**A.** Its TGI is over 100 µM.

**Q.** And the TGI [54]?
**A.** Its TGI is over 100 µM.

**Q.** What about the TGI [55] of the same compound?
**A.** The TGI was over 100 µM.

**Q.** What about the TGI [56] of the same compound?
**A.** Its TGI is over 100 µM.
